# Test results: patent publication US20140326192A1, “ANTIMICROBIAL ANIMAL PRODUCT” (COVENTRY UNIVERSITY, priority 2011, published 2014)
# Experiment: Stability of the antimicrobial agent to melting during processing (activity retained)
# Assay type: physicochemical
# Procedure: Bundles of the dosed and non-dosed fibres were melted at 170° C. and compressed, to manufacture a number of continuous, smooth, 2 mm thick plastic sheets. The sheets were cut to create 50×50 mm area test pieces, as required by the standard test for Anti Microbial Activity ISO 22196:2007. This test is an appropriate method for assessing the surface antimicrobial activity of plastic materials when micro-organisms are placed onto the test piece.
# 3-(trihydroxysilyl)propyldimethyl octodecyl ammonium chloride was combined with polypropylene stock at a dosing rate of around 1% by total weight and the mixture melted, before extruding it into fibres. Control fibres were produced by a method identical other than omission of the 3-(trihydroxysilyl)propyldimethyl octodecyl ammonium chloride. The fibres were 0.45 mm with an X shape cross section and 100 mm long.
structure (smiles),measurement,setting,value
"CCCCCCCCCCCCCCCCCC[N+](C)(C)CCC[Si](O)(O)O.[Cl-] [antimicrobial agent, 3-(trihydroxysilyl)propyldimethyl octodecyl ammonium chloride]",stability to re-melting of the fibres when making the test pieces,fibres melted at 170° C. and compressed,sufficiently stable
same,stability after melting when making the fibres,melting to 200° C.,sufficiently stable
